# Data as given in the Kinase Knowledgebase extract (Sharma et al. 2016).
# Molecular target: MAPK14 (UniProt Q16539)
# Assay: p38 Inhibition Assay (in Vitro)
# MAPK14, sequence (Q16539 whole entry, looked up): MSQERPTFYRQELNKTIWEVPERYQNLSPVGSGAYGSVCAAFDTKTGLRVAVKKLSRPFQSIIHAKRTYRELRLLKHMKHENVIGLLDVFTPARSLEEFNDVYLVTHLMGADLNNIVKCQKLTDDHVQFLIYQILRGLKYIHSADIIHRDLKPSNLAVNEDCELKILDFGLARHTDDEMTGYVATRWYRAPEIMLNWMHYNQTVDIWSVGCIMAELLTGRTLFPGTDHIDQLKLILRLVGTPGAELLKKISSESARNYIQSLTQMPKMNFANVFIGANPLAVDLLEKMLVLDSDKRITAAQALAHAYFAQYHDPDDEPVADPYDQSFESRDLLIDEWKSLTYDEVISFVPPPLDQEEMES
row,IC50,Structure (SMILES)
1,> 30 µM,NS(=O)(=O)c1cccc(NC2CCN(S(=O)(=O)c3ccc(CNC(=O)c4ccc(Cl)cc4)s3)CC2)c1
2,> 30 µM,COC(=O)c1cccc(NC2CCN(S(=O)(=O)c3ccc(CNC(=O)c4ccc([N+](=O)[O-])cc4)s3)CC2)c1
3,> 30 µM,O=C(NCc1ccc(S(=O)(=O)N2CCC(Nc3ccc(Cl)cc3)CC2)s1)c1ccc(Cl)cc1
4,> 30 µM,O=C(NCc1ccc(S(=O)(=O)N2CCC(n3nnc4ccccc43)CC2)s1)c1ccc(Cl)cc1
5,> 30 µM,O=C(NCc1ccc(S(=O)(=O)N2CCC(Nc3cccc(S(=O)(=O)CCO)c3)CC2)s1)c1ccc(Cl)cc1
6,> 30 µM,CCCc1cccc(NC2CCN(S(=O)(=O)c3ccc(CNC(=O)c4ccc(Cl)cc4)s3)CC2)c1

# The remaining lines, values behind:
row,Structure (SMILES),IC50
1,O=C(NCc1ccc(S(=O)(=O)N2CCC(C(=O)c3ccc(F)cc3F)CC2)s1)c1ccc(Cl)cc1,> 30 µM
2,O=C(NCc1ccc(S(=O)(=O)N2CCCN(C(=O)Cc3ccccc3)CC2)s1)c1ccc(Cl)cc1,> 30 µM
3,COc1cccc(NC2CCN(S(=O)(=O)c3ccc(CNC(=O)c4ccc([N+](=O)[O-])cc4)s3)CC2)c1,> 30 µM
4,O=C(NCc1ccc(S(=O)(=O)N2CCC(n3cnc4ccccc43)CC2)s1)c1ccc(Cl)cc1,> 30 µM
5,O=C(NCc1ccc(S(=O)(=O)N2CCN(C(=O)c3cccc4ccccc34)CC2)s1)c1ccc(Cl)cc1,> 30 µM
6,O=C(NCc1ccc(S(=O)(=O)N2CCC(Nc3ccccc3)CC2)s1)c1ccc(Cl)cc1,> 30 µM
7,O=C(NCc1ccc(S(=O)(=O)N2CCC(n3nnc4ccccc43)CC2)s1)c1ccccc1O,> 30 µM
8,COc1cccc(C(=O)NCc2ccc(S(=O)(=O)N3CCC(Nc4ccccc4[N+](=O)[O-])CC3)s2)c1,> 30 µM
